In patent US20070276025A1, “Indirubin-Type Compounds, Compositions, and Methods for Their Use” (priority 2003, published 2007):
Read-outs that look alike come from different tables or passages of the source.

Key:
[1] = test system: 5L (AhR +/+) hepatoma cells; assay: Cell viability MTT assay, 5L cells; format: cell-based, mouse; conditions: range of concentrations, 24 and 48 hr
MAPKK = conditions: Table 2, data from Hoessel et al. (1999); cited from earlier work
cAMP-dependent PK [2] = conditions: Table 2, data from Hoessel et al. (1999); cited from earlier work
cGMP-dependent PK [3] = conditions: Table 2, data from Hoessel et al. (1999); cited from earlier work
casein kinase 2 = conditions: Table 2, data from Hoessel et al. (1999); cited from earlier work
[4] = target: insulin receptor Tyr kinase; conditions: Table 2, data from Hoessel et al. (1999); cited from earlier work
CDK2/cyclin A [5] = target: T1, CDK2/cyclin A (Homo sapiens, UniProt P24941); set-up: made in house; conditions: Hoessel et al. (1999); read-out: IC50 CDK2/cyclinA; cited from earlier work
CDK4/cyclin D1 [6] = target: T2, CDK4/cyclin D1 (Homo sapiens, UniProt P11802); set-up: made in house; conditions: Table 2, data from Hoessel et al. (1999); cited from earlier work
erk2 = erk2 (Homo sapiens, UniProt P28482); set-up: made in house; conditions: Table 2, data from Hoessel et al. (1999); cited from earlier work
protein kinase C γ [7] = target: T3, protein kinase C γ (Homo sapiens, UniProt P05129); set-up: made in house; conditions: Table 2, data from Hoessel et al. (1999); cited from earlier work
protein kinase C ε [8] = target: T4, protein kinase C ε (Homo sapiens, UniProt Q02156); set-up: made in house; conditions: Table 2, data from Hoessel et al. (1999); cited from earlier work
T4 sequence (Q02156 1-737): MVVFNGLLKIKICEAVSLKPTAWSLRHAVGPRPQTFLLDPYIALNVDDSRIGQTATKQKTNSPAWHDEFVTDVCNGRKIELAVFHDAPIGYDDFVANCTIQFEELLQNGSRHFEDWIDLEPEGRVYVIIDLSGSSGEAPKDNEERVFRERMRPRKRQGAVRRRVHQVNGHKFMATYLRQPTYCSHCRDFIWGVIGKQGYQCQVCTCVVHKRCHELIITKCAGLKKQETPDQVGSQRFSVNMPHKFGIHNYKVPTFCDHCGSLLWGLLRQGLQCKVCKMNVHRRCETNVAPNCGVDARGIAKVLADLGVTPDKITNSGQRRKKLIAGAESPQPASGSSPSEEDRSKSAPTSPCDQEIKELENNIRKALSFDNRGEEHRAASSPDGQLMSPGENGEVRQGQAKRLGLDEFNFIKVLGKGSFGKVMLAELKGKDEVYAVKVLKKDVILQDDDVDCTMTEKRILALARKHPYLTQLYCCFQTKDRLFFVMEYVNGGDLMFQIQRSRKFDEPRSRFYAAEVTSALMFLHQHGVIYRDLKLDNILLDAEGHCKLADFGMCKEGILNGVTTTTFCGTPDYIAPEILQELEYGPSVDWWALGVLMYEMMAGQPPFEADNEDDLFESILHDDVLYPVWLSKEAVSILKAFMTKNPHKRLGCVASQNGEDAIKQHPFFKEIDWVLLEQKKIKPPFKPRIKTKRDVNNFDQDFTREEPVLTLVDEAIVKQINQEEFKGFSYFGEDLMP

protein kinase C η = protein kinase C η (Homo sapiens, UniProt P24723); set-up: made in house; conditions: Table 2, data from Hoessel et al. (1999); cited from earlier work
GSK-3 = assay: β-catenin phosphorylation on GSK-3 specific sites in COS-1 cells (Western blot); conditions: 5 μM indirubins or 20 mM LiCl, 24 hrs
GSK-3α/β = GSK-3α/β kinase assay (GS-1 peptide, 15 μM ATP); format: biochemical, porcine
CDK5/p25 = CDK5/p25 (Homo sapiens, UniProt Q00535); assay: CDK5/p25 kinase assay (histone H1, 15 μM ATP); format: biochemical, mammalian; conditions: read-out: IC50 CDK5/p25
AhR = AhR (Homo sapiens, UniProt P35869)
cAMP-dependent PK [9] = assay: cAMP-dependent PK assay; conditions: read-out: IC50 cAMP-dependent PK; Table 2, 15 μM ATP
cGMP-dependent PK [10] = assay: cGMP-dependent PK assay; conditions: read-out: IC50 cGMP-dependent PK; Table 2, 15 μM ATP
protein kinase C γ [11] = target: T3, protein kinase C γ; assay: protein kinase C γ assay; conditions: read-out: IC50 protein kinase C γ; Table 2, 15 μM ATP
protein kinase C ε [12] = target: T4, protein kinase C ε; assay: protein kinase C ε assay; conditions: read-out: IC50 protein kinase C ε; Table 2, 15 μM ATP
CDK2/cyclin A [13] = target: T1, CDK2/cyclin A; assay: CDK2/cyclin A kinase assay; conditions: read-out: IC50 CDK2/cyclin A; Table 2, 15 μM ATP
CDK4/cyclin D1 [14] = target: T2, CDK4/cyclin D1; assay: CDK4/cyclin D1 kinase assay; conditions: read-out: IC50 CDK4/cyclin D1; Table 2, 15 μM ATP
[15] = Table 1, read-out: IC50 GSK-3 α/β
[16] = Table 2, 15 μM ATP, read-out: IC50 GSK-3α/β
[17] = Table 5, read-out: IC50 GSK-3α/β
[18] = Table 7, GSK-3, read-out: IC50exp

T2 sequence (P11802 whole entry, species assumed): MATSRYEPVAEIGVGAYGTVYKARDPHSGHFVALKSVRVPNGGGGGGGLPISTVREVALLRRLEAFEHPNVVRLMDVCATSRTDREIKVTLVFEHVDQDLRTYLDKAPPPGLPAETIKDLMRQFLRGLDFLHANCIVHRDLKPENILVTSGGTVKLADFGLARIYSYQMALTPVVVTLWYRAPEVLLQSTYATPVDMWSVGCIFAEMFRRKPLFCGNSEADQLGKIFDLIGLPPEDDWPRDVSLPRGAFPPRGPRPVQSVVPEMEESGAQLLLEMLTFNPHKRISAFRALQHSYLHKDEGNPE
T2 sequence (P24385 whole entry partner, species assumed): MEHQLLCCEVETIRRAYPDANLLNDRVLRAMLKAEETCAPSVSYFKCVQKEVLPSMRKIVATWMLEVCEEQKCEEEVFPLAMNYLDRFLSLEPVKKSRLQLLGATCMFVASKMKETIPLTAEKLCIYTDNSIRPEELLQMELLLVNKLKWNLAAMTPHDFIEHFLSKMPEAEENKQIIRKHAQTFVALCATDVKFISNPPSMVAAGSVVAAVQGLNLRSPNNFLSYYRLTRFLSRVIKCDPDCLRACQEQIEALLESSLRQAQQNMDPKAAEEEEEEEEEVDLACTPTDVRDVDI
CDK5/p25, sequence (Q00535 whole entry, species assumed): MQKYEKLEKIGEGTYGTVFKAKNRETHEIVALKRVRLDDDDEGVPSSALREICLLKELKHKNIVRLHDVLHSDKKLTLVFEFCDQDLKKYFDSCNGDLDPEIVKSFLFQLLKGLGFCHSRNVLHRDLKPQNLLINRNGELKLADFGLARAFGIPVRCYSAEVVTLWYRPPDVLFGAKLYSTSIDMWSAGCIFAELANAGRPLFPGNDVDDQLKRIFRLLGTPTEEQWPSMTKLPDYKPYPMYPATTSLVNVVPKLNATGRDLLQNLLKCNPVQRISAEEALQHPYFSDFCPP
CDK5/p25, sequence (Q15078 99-307 partner limits assumed, species assumed): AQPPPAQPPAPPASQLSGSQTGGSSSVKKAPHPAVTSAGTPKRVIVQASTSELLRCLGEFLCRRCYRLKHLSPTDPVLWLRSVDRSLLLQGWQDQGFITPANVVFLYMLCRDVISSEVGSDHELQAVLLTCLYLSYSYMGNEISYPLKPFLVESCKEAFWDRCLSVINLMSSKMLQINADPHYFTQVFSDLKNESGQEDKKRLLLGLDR
AhR, sequence (P35869 11-848): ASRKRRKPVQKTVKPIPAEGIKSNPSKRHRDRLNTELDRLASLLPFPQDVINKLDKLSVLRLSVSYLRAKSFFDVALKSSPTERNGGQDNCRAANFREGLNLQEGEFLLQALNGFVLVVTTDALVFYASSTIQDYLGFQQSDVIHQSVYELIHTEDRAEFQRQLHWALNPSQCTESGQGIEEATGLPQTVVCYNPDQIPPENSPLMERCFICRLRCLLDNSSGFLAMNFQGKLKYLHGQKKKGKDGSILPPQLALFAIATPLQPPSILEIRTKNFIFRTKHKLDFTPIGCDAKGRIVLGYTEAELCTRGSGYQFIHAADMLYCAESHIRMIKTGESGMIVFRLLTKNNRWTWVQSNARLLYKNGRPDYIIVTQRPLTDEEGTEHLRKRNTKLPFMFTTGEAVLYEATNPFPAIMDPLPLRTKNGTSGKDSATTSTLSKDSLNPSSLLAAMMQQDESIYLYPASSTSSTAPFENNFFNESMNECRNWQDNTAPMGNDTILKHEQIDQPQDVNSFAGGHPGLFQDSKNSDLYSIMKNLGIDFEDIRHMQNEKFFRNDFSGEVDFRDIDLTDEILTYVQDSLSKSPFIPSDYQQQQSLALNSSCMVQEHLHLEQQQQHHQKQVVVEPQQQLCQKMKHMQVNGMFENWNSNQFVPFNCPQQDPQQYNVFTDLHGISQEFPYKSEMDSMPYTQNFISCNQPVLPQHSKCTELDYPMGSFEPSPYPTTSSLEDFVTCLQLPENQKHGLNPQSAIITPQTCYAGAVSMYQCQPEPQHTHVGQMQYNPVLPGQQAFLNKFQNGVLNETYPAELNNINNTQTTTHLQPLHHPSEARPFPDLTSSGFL
AhR, sequence (P27540 whole entry partner): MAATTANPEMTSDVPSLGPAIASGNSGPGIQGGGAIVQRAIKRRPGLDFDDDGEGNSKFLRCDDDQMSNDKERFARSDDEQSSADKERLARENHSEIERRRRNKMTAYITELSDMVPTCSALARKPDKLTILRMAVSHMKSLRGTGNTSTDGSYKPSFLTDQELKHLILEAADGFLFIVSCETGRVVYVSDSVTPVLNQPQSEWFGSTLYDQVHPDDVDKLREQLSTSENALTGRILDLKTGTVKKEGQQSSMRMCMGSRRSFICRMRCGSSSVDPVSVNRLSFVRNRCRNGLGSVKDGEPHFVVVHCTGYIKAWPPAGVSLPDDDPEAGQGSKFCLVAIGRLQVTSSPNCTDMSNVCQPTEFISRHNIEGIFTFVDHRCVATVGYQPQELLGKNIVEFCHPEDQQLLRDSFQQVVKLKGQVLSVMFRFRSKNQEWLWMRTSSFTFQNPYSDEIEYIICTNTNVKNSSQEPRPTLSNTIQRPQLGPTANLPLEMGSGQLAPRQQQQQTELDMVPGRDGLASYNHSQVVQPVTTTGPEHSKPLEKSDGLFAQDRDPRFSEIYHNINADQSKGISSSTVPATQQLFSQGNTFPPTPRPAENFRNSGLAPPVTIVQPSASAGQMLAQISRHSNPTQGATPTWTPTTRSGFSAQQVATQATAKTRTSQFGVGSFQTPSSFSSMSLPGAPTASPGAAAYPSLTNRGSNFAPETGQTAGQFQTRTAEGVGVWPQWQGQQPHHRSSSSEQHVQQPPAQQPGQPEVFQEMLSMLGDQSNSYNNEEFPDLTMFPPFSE
protein kinase C η, sequence (P24723 whole entry): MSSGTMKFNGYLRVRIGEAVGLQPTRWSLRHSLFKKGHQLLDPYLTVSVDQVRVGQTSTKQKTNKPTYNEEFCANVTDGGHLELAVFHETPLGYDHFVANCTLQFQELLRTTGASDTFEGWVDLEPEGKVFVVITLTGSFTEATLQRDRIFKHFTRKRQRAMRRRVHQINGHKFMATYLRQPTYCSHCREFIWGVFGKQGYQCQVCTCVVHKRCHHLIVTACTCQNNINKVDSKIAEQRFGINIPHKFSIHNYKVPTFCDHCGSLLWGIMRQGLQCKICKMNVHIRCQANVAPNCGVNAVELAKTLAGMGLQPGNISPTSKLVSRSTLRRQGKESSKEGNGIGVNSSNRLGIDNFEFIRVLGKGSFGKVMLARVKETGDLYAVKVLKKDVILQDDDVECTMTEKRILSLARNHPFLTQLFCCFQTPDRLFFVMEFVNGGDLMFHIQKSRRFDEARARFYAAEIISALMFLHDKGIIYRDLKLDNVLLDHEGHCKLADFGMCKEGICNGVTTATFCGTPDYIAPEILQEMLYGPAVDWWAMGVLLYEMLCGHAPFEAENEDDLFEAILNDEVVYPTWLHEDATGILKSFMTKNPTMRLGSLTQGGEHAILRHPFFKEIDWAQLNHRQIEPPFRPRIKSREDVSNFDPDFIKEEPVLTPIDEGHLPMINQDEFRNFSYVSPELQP
erk2, sequence (P28482 whole entry, species assumed): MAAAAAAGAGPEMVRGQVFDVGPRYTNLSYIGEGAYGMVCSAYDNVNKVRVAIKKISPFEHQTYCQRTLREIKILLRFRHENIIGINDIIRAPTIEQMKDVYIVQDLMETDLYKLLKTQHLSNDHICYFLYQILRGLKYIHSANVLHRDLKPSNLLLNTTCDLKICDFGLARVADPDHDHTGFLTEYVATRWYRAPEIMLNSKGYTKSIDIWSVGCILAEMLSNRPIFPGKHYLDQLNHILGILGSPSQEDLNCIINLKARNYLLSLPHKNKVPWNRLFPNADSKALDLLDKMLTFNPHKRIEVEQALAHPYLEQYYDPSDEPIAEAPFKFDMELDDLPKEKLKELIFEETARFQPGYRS

SMILES	IC50 (GSK-3α/β; [15]) [µM]	IC50 (GSK-3α/β; [16]) [µM]	IC50 (GSK-3α/β; Table 4, read-out: IC50 GSK-3) [µM]	IC50 (GSK-3α/β; [17]) [µM]	IC50 (GSK-3α/β; [18]) [µM]	IC50 (CDK5/p25; Table 1) [µM]	IC50 (CDK5/p25; Table 5) [µM]	IC50 (cAMP-dependent PK [9]) [µM]	IC50 (cGMP-dependent PK [10]) [µM]	IC50 (protein kinase C γ [11]) [µM]	IC50 (protein kinase C ε [12]) [µM]	IC50 (CDK2/cyclin A [13]) [µM]	IC50 (CDK4/cyclin D1 [14]) [µM]	further results
O=C1Nc2ccccc2/C1=C1/Nc2ccccc2/C1=N\O [7h, indirubin-3′-oxime]														survival of 5L cells (MTT) [1]: equally sensitive to IO and BIO; IC50 (MAPKK): > 100 µM; IC50 (cAMP-dependent PK [2]): 6.3 µM; IC50 (cGMP-dependent PK [3]): 9 µM; IC50 (casein kinase 2): 12 µM; IC50 [4]: 11 µM; IC50 (CDK2/cyclin A [5]): 0.44 µM; IC50 (CDK4/cyclin D1 [6]): 3.33 µM; IC50 (erk2): > 100 µM; IC50 (protein kinase C γ [7]): 8.4 µM; IC50 (protein kinase C ε [8]): 20 µM; IC50 (protein kinase C η): 52 µM; unphosphorylated β-catenin level (GSK-3): neither the kinase-inactive MeBIO nor IO, led to a major increase
CC(=O)ON=C1C(=C2C(=O)Nc3cc(Br)ccc32)Nc2ccccc21 [8a, 6-Bromoindirubin-3′-acetoxime]	0.01	0.01	0.01	0.01	0.01	2.4	2.4	> 10	> 10	> 10	> 10	4.3	> 10	EC50 (AhR): ≥ 0.1 µM
CON=C1C(=C2C(=O)Nc3cc(Br)ccc32)Nc2ccccc21 [9a, 6-Bromoindirubin-3′-methoxime]	0.03	0.03	0.03	0.03	0.03	2.2	2.2	> 10	> 10	> 10	> 10	15	> 10	
